Experimental data from patent publication US6906095B2, “Indolylalkylidenehydrazine-carboximidamide derivatives as 5-hydroxytryptamine-6 ligands” (Wyeth, priority 2002, dated 2005).

The molecules below were run against T1, human cloned 5-HT6 receptors (Homo sapiens, UniProt P50406) (assay: 5-HT6 binding affinity, [3H]-LSD displacement in membranes of Hela cells). Conditions: not given.
T1 construct: expressed in transfected cells; host or cells: Hela cells
T1 sequence (P50406 whole entry): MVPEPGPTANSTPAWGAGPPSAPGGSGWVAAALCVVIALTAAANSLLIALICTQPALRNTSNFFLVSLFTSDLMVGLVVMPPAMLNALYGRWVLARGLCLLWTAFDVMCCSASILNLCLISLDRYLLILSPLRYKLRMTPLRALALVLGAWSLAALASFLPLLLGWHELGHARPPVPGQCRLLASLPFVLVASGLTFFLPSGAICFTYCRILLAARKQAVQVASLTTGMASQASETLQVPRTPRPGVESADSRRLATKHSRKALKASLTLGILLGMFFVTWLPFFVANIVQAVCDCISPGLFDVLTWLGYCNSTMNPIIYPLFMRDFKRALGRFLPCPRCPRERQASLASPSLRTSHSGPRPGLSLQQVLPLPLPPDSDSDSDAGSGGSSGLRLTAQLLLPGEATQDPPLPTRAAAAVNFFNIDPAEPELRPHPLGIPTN

Row | Ki | Compound
1 | 25 nM | CC(=NNC(=N)N)c1cn(S(=O)(=O)c2ccc(Cl)s2)c2ccccc12 [Example 37, 2-(1-{1-[(5-chlorothien-2-yl)sulfonyl]-1H-indol-3-yl}ethylidene)hydrazinecarboximidamide]
2 | 19 nM | CC(=NNC(=N)N)c1cn(S(=O)(=O)c2ccc(Br)s2)c2ccccc12 [Example 33, 2-(1-{1-[(5-bromothien-2-yl)sulfonyl]-1H-indol-3-yl}ethylidene)hydrazinecarboximidamide]
3 | 8 nM | CC(=NNC(=N)N)c1cn(S(=O)(=O)c2c(Cl)nc3sccn23)c2ccccc12 [Example 36, 2-(1-{1-[(6-chloroimidazo[2,1-b][1,3]thiazol-5-yl)sulfonyl]-1H-indol-3-yl}ethylidene)hydrazinecarboximidamide]

Same assay, conditions: test compound dose 10 nM; [3H]-LSD 3.0 nM

Row | inhibition at 0.01 µM | Compound
4 | 40.6% | CC(=NNC(=N)N)c1cn(S(=O)(=O)c2ccccc2)c2ccc(C#N)cc12 [Example 16, 2-{1-[5-cyano-1-(phenylsulfonyl)-1H-indol-3-yl]ethylidene}hydrazinecarboximidamide]

Same assay, conditions: test compound dose 100 nM; [3H]-LSD 3.0 nM

Row | Compound | inhibition at 0.1 µM
5 | CC(=NNC(=N)N)c1cn(S(=O)(=O)c2ccc(Br)cc2)c2ccccc12 [Example 30, 2-(1-{1-[(4-bromophenyl)sulfonyl]-1H-indol-3-yl}ethylidene)hydrazinecarboximidamide] | 65%
6 | CC(=NNC(=N)N)c1cn(S(=O)(=O)c2cc(Br)c(Br)s2)c2ccccc12 [Example 39, 2-(1-{1-[(4,5-dibromothien-2-yl)sulfonyl]-1H-indol-3-yl}ethylidene)hydrazinecarboximidamide] | 62.1%
7 | CC(=NNC(=N)N)c1cn(S(=O)(=O)c2ccc(Cl)s2)c2ccccc12 [Example 37, 2-(1-{1-[(5-chlorothien-2-yl)sulfonyl]-1H-indol-3-yl}ethylidene)hydrazinecarboximidamide] | 75.2%
8 | CC(=NNC(=N)N)c1cn(S(=O)(=O)c2cc(Br)c(Cl)s2)c2ccccc12 [Example 28, 2-(1-{1-[(4-bromo-5-chlorothien-2-yl)sulfonyl]-1H-indol-3-yl}ethylidene)hydrazinecarboximidamide] | 58.3%
9 | CC(=NNC(=N)N)c1cn(S(=O)(=O)c2ccc(Br)s2)c2ccccc12 [Example 33, 2-(1-{1-[(5-bromothien-2-yl)sulfonyl]-1H-indol-3-yl}ethylidene)hydrazinecarboximidamide] | 76.4%
10 | CC(=NNC(=N)N)c1cn(S(=O)(=O)c2c(Cl)nc3sccn23)c2ccccc12 [Example 36, 2-(1-{1-[(6-chloroimidazo[2,1-b][1,3]thiazol-5-yl)sulfonyl]-1H-indol-3-yl}ethylidene)hydrazinecarboximidamide] | 86.4%

More lines, now with the values ahead:

Row | inhibition at 0.1 µM | Compound
11 | 33% | CSc1nccc(-c2ccc(S(=O)(=O)n3cc(C(C)=NNC(=N)N)c4ccccc43)s2)n1 [Example 49, 2-{1-[1-({5-[2-(methylthio)pyrimidin-4-yl]thien-2-yl}sulfonyl)-1H-indol-3-yl]ethylidene}-hydrazinecarboximidamide]
12 | 78.3% | CCCCS(=O)(=O)n1cc(C(C)=NNC(=N)N)c2ccccc21 [Example 58, 2-{1-[1-(butylsulfonyl)-1H-indol-3-yl]ethylidene}hydrazinecarboximidamide]
13 | 58.4% | CCCCS(=O)(=O)n1cc(C(=NNC(=N)N)C2CC2)c2ccc(F)cc21 [Example 105, 2-[[1-(butylsulfonyl)-6-fluoro-1H-indol-3-yl](cyclopropyl)methylidene]hydrazinecarboximidamide]
14 | 75.1% | CC(=NNC(=N)N)c1cn(S(C)(=O)=O)c2ccc(Cl)cc12 [Example 72, 2-{1-[5-chloro-1-(methylsulfonyl)-1H-indol-3-yl]ethylidene}hydrazinecarboximidamide]
15 | 61.5% | COc1ccc(S(=O)(=O)n2cc(C(=NNC(=N)N)C3CC3)c3ccccc32)cc1OC [Example 71, 2-(cyclopropyl{1-[(3,4-dimethoxyphenyl)sulfonyl]-1H-indol-3-yl}methylidene)hydrazinecarboximidamide]
16 | 81.7% | CC(=NNC(=N)N)c1cn(S(=O)(=O)c2ccccc2)c2ccc(Cl)cc12 [Example 84, 2-{1-[5-chloro-1-(phenylsulfonyl)-1H-indol-3-yl]ethylidene}hydrazinecarboximidamide]
17 | 70.1% | CC(=NNC(=N)N)c1cn(S(=O)(=O)c2ccccc2[N+](=O)[O-])c2ccccc12 [Example 51, 2-(1-{1-[(2-nitrophenyl)sulfonyl]-1H-indol-3-yl}ethylidene)hydrazinecarboximidamide]

Same assay, conditions: test compound dose 1000 nM; [3H]-LSD 3.0 nM; read-out: % Inhibition

Row | Compound | inhibition at 1 µM
18 | CC(=NNC(=N)N)c1c(-c2ccc3ccccc3c2)n(S(=O)(=O)c2ccccc2)c2ccccc12 [Example 14, 2-{1-[2-(2-naphthyl)-1-(phenylsulfonyl)-1H-indol-3-yl]ethylidene}hydrazinecarboximidamide] | 85.4%
19 | N=C(N)N/N=C(\C=C\c1ccccc1Cl)c1cn(S(=O)(=O)c2ccccc2)c2ccccc12 [Example 8, 2-{(E,2E)-3-(2-chlorophenyl)-1-[1-(phenylsulfonyl)-1H-indol-3-yl]prop-2-enylidene}-hydrazinecarboximidamide] | 95.2%

The remaining lines, values ahead:

Row | inhibition at 1 µM | Compound
20 | 60.2% | CCCCC(=NNC(=N)N)c1cn(S(=O)(=O)c2ccc3ccccc3c2)c2cc(F)ccc12 [Example 110, 2-{1-[6-fluoro-1-(2-naphthylsulfonyl)-1H-indol-3-yl]pentylidene}hydrazinecarboximidamide]
21 | 64.4% | COc1ccc(S(=O)(=O)n2cc(C(C)=NNC(=N)N)c3ccc(F)cc32)cc1 [Example 106, 2-(1-{6-fluoro-1-[(4-methoxyphenyl)sulfonyl]-1H-indol-3-yl}ethylidene)hydrazinecarboximidamide]
22 | 62.3% | CCCCC(=NNC(=N)N)c1cn(S(=O)(=O)c2ccc3ccccc3c2)c2ccccc12 [Example 65, 2-{1-[1-(2-naphthylsulfonyl)-1H-indol-3-yl]pentylidene}hydrazinecarboximidamide]
